Test system: MCF7
Assay: Cytotoxicity against human MCF7 cells after 48 hrs by MTT assay
Type: functional, cell-based
Conditions: MCF7, 48 h

Which IC50 does the source give for CCOc1cccc(C(=O)C2=C(O)C(=O)N(Cc3ccco3)C2c2cccnc2)c1 (stereo not given) here?
The IC50 was 181 µM.

Cc1cc(C(=O)C2=C(O)C(=O)N(CCN3CCOCC3)C2c2ccncc2)ccc1OCC(C)C (stereo not given) was tested. Which IC50 did it give?
Its IC50 is 151 µM.

CCc1cccc(CC)c1N(COC)C(=O)Cn1c(CO)nc2ccccc21 was tested. Which IC50 did it give?
The IC50 was 123 µM.

Which IC50 does the source give for Cc1ccc(/C=N\NC(=O)Cn2c(-c3nonc3N)nc3ccccc32)cc1 here?
Its IC50 is 172 µM.

How did the IC50 turn out when Cc1ccc(C)c(C(=O)C2=C(O)C(=O)N(Cc3ccco3)C2c2cccnc2)c1 (stereo not given) was run?
The IC50 was over 200 µM.

With Nc1ccc(Oc2ccc3nc(-c4ccccc4)c(-c4ccc(N)cc4)nc3c2)cc1 as the molecule, how does the IC50 read?
Its IC50 is 65.4 µM.

For C[C@]12CC[C@H](O)CC1=CC[C@@H]1[C@@H]2CC[C@]2(C)C(=O)CC[C@@H]12 [PRASTERONE], which IC50 is on record?
The IC50 was over 200 µM.

For CC/C(=C(\c1ccccc1)c1ccc(OCCN(C)C)cc1)c1ccccc1 [TAMOXIFEN], which IC50 is on record?
The IC50 was 15.2 µM.

With CC(C)CC(C(=O)Nc1cccc(O)c1)N1C(=O)c2ccccc2C1=O (stereo not given) as the molecule, how does the IC50 read?
Its IC50 is 148 µM.

Which IC50 does the source give for COc1ccc(-n2c(SCC(=O)Nc3cccc(C(C)=O)c3)nnc2-c2ccccc2OC)cc1 here?
The IC50 was over 200 µM.

For COc1ccc(COC(=O)/C(=C(\C)NC(N)=O)C(C)c2ccccc2OCc2ccccc2)cc1 (stereo not given), which IC50 is on record?
The IC50 was 108 µM.

How did the IC50 turn out when COc1cccc(NC(=O)COc2ccc(C3C(C#N)=C(N)Oc4[nH]nc(C)c43)cc2)c1 (stereo not given) was run?
The IC50 was 38.5 µM.

Which IC50 does the source give for COc1ccc(-c2cc(C(F)(F)F)n3ncc(C(=O)NC(C)c4ccccc4)c3n2)cc1OC (stereo not given) here?
Its IC50 is 30.2 µM.

COc1cc(C2C(C(=O)c3ccc(F)cc3)=C(O)C(=O)N2Cc2cccnc2)ccc1O (stereo not given) was tested. Which IC50 did it give?
Its IC50 is 185 µM.

With Nc1ccc(-c2nc3cc(N)ccc3n2CCO)cc1 as the molecule, how does the IC50 read?
The IC50 was over 200 µM.

Source: ChEMBL document CHEMBL2439954, “3D-QSAR using pharmacophore-based alignment and virtual screening for discovery of novel MCF-7 cell line inhibitors” (Eur J Med Chem, 2013)
